Results taken from US9125768B2, “Hygiene tissue comprising a microbe-inhibiting composition” (SCA HYGIENE PRODUCTS AB, priority 2006, dated 2015).

How the values were obtained:
[1] = system: Candida albicans; test: Test 3: growth of Candida albicans in extracellular product of Ess-1 combined with additive, visual turbidity; assay type: cell-based; conditions: additive 50 mM combined with supernatant from Ess-1, pH adjusted to pKa of the acid, 20 hours 37° C.
Protocol: Ess-1 was grown to stationary phase in dMRSs broth (MRS broth without addition of sodium acetate). The bacterial culture was centrifuged to pellet the cells and sterile filtered using a 0,22 μm filter (MILLIPORE filter, Bedford, USA) whereupon the supernatant comprising the extracellular product was obtained. […] Wells containing strong growth of Candida in pure dMRSs-broth was graduated as five, while wells with no visual growth were graduated as zero.

[2] = system: Candida albicans (C. albicans 702); test: Test 1: growth of Candida albicans in extracellular product of LB 931 with additives, micro titre plate, visual turbidity; assay type: cell-based; conditions: additive 50 mM in combination with extracellular product of LB 931, pH 3.4±0.2, 37° C. 24 hrs
Protocol: The purpose of this test was to determine whether selected additives affect the growth of Candida albicans and if an improved growth inhibition can be achieved when they are added to the extracellular products of Lactobacillus plantarum, LB 931. The additives used in this test were ascorbic acid, citric acid, phenylalanine, acetic acid, propionic acid and sodium propionate.
A clinical isolate of Candida albicans (designated C. albicans 702) was used as test strain. It was isolated from the vagina of a person with vaginal candidiasis.
As control pure dMRSs broth (MRS broth without addition of sodium acetate) was used. A specified volume was transferred to wells of a micro titre plate and was let to air dry (45° C. minimum of 20 hrs).
Cultures of LB 931 grown in dMRSs broth were centrifuged to pellet the cells and sterile filtered using a 0,22 μm filter (MILLIPORE filter, Bedford, USA) in order to obtain the LB 931 supernatant com prising the LB 931 extracell War product. […]
The test was blinded so that there could be no preconceived opinions colouring the results. The inhibition of Candida was evaluated and graduated, by two persons using a template, on a scale from five to zero based on visual observations of turbidity with a calculated mean value being presented. […]

Structure (SMILES)	inhibition of Candida albicans [1]	growth inhibiting effect on Candida (growth graded five to zero by turbidity) [2]
O=C1O[C@H]([C@@H](O)CO)C(O)=C1O [ascorbic acid]	increased inhibition	–
CCC(=O)O [propionic acid]	–	no growth at all
